Consider one molecule from PMC9820345, “Metal Complexes of a 5-Nitro-8-Hydroxyquinoline-Proline Hybrid with Enhanced Water Solubility Targeting Multidrug Resistant Cancer Cells” (International Journal of Molecular Sciences, 2022).

The nature of series [1]: Formation constants of Zn(II) complexes by UV-vis spectrophotometric titrations. It is filed as physicochemical. As to conditions: I = 0.1 M KCl, 25.0 °C, data evaluated at pH < 8. The protocol:
Complexation of HQNO2-L-Pro with Zn(II) was studied by UV-vis and ^1H NMR spectroscopy (Figure 6). Comparing the UV-vis spectra recorded for the ligand in the presence and in the absence of Zn(II) with increasing pH, complex formation was evident from the UV-vis spectral changes at pH < ~8; however, in the basic pH range the spectra resembled more and more those of the free ligand. Based on the spectra recorded at pH < 8, formation constants for species [Zn(HL)]^+ and [Zn(HL)2] were determined (Table 2).
An Agilent Cary 8454 diode array spectrophotometer (Santa Clara, CA, USA) was used to obtain UV-vis spectra in the wavelength range 200–1000 nm, while spectra were recorded for the Fe(II)-containing samples using an Avantes (Avantes B.V., Apeldoorn, The Nederlands) AvaSpec-ULS2048CL-EVO spectrometer with an AvaLight-DHc light source and FDP-7UVIR200-2-VAR transmission dip probe. The titrations for the Fe(II)-containing samples were performed in a laboratory glove box (GP(Campus), Jacomex) (O2 content ≤ 1 ppm). The path length (ℓ) was 1 cm in most cases (the actual ℓ is always indicated in the legends of the figures). The concentrations of the ligands and complexes were between 40 and 200 µM, and 0.2 M KNO3 for the organometallic complexes or 0.1 M KCl for the Fe(II/III), Cu(II), and Zn(II) complexes were used to adjust the constant ionic strength. […]

Series [2] deals with tested cancer cell lines (MES-SA, MES-SA/Dx5, Colo205, Colo320). The series can be described thus: In vitro cytotoxicity, summary over the tested cancer cell lines. It is filed as cell-based. As to conditions: Homo sapiens, range over MES-SA. The protocol: The in vitro cytotoxicity of HQNO2-L-Pro and its RuCym and RhCp* complexes was assayed in two chemosensitive and resistant cell pairs to reveal their potential MDR selective toxicity. On the one hand, the parental human uterine sarcoma MES-SA cell line and its P-gp positive MDR derivative MES-SA/Dx5 cell line were applied; on the other hand, the human colon adenocarcinoma Colo205 cell line and its doxorubicin-resistant counterpart, the Colo320 cell line, were involved. The determined IC50 values using 72 h (Colo205 and Colo320) or 144 h incubation time (MES-SA and MES-SA/Dx5) are shown in Table 4. Doxorubicin was used as a control, and IC50 values obtained for the analogous HQCl-L-Pro compounds are also shown for comparison. […] The lower cytotoxicity of HQNO2-L-Pro is most likely due to its very strong hydrophilic features.
Inhibition of the cell growth (expressed as IC50: inhibitory concentration that reduces by 50% the growth of the cells exposed to the tested compounds) was determined from the sigmoid curve where 100 − ((ODsample − ODmedium control)/(ODcell control − ODmedium control)) × 100 values were plotted against the logarithm of compound concentrations. […]

Series [3] is described as follows: Formation constants of Cu(II) complexes by UV-vis spectrophotometric titrations. It is filed as physicochemical. As to conditions: I = 0.1 M KCl, 25.0 °C. The protocol:
An Agilent Cary 8454 diode array spectrophotometer (Santa Clara, CA, USA) was used to obtain UV-vis spectra in the wavelength range 200–1000 nm, while spectra were recorded for the Fe(II)-containing samples using an Avantes (Avantes B.V., Apeldoorn, The Nederlands) AvaSpec-ULS2048CL-EVO spectrometer with an AvaLight-DHc light source and FDP-7UVIR200-2-VAR transmission dip probe. The titrations for the Fe(II)-containing samples were performed in a laboratory glove box (GP(Campus), Jacomex) (O2 content ≤ 1 ppm). The path length (ℓ) was 1 cm in most cases (the actual ℓ is always indicated in the legends of the figures). The concentrations of the ligands and complexes were between 40 and 200 µM, and 0.2 M KNO3 for the organometallic complexes or 0.1 M KCl for the Fe(II/III), Cu(II), and Zn(II) complexes were used to adjust the constant ionic strength. For HSA containing samples, complex concentrations were 50 µM, and 0.5, and 2 equiv. biomolecules were added for kinetic studies, respectively. For HSA model containing samples, complex concentrations were 50 µM, and the model concentrations were 0–150 µM and 0–500 µM, respectively, and the pH was 7.4 (PBS’). Spectra were always background and baseline corrected. The computer program HypSpec was used to obtain stability constants. Hydrolysis constants of the Fe(III), Fe(II), RuCym, and RhCp* species were included in the speciation models (see Table S4 with the data taken from References).

For `O=C(O)[C@@H]1CCCN1Cc1cc([N+](=O)[O-])c2cccnc2c1O` [HQNO2-L-Pro, (2S)-1-((8-hydroxy-5-nitroquinolin-7-yl)methyl)pyrrolidin-1-ium-2-carboxylate], in series [1], the “logβ [M(HL)2]” value is on record as 33.71 ± 0.06 and the “logβ [M(HL)]” value came out at 17.36 ± 0.03. In series [2], the IC50 (usually the concentration at which inhibition is half-maximal) was in the range of 32.4 to 226 µM. Further, in series [3], the “logβ [M(HL)2]” value is given as 38.60 ± 0.03, the “logβ [M(HL)(L)]” value is given as 31.75 ± 0.03, the “logβ [M(HL)]” value came out at 19.40 ± 0.03 and the “logβ [M(L)2]” value is 22.99 ± 0.03. For the same molecule, the “logβ [M(L)]” value in series [3] came to 14.45 ± 0.03.
